Data taken from patent EP1247803A2, “Indolinone compounds suitable for modulation of protein kinases” (Sugen, Inc., priority 1996, dated 1998).

Columns and labels:
[1] = target: PDGF-R (Homo sapiens, UniProt P09619); experiment: PDGF-R ELISA; format: cell-based
Text: A PDGF-R ELISA is described in International Patent Publication No. WO 96/40116, published December 19, 1996 by Tang et al.

[2] = tested on: MET; experiment: MET biochemical kinase assay; design: species or system human; concentration or dose not given beside the values
Summary of the method: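 MET from cell lysates captured on ELISA plates via rabbit anti-MET cytoplasmic-domain antibody; compounds added and kinase reaction run in ATP and divalent-metal buffer. Receptor phosphotyrosine detected with HRP-conjugated anti-phosphotyrosine antibody and TMB colorimetry.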

[3] = target: T1, EGFR (Homo sapiens, UniProt P00533); experiment: EGFR ELISA assay (in vitro kinase activity, EGFR captured from A431 cell lysate); format: biochemical; design: concentration or dose not given beside the values
T1 construct: Add 7 ug A431 cell lysate per well (EGFR source); endogenous in cells; host or cells: A431
T1 sequence (P00533 25-1210): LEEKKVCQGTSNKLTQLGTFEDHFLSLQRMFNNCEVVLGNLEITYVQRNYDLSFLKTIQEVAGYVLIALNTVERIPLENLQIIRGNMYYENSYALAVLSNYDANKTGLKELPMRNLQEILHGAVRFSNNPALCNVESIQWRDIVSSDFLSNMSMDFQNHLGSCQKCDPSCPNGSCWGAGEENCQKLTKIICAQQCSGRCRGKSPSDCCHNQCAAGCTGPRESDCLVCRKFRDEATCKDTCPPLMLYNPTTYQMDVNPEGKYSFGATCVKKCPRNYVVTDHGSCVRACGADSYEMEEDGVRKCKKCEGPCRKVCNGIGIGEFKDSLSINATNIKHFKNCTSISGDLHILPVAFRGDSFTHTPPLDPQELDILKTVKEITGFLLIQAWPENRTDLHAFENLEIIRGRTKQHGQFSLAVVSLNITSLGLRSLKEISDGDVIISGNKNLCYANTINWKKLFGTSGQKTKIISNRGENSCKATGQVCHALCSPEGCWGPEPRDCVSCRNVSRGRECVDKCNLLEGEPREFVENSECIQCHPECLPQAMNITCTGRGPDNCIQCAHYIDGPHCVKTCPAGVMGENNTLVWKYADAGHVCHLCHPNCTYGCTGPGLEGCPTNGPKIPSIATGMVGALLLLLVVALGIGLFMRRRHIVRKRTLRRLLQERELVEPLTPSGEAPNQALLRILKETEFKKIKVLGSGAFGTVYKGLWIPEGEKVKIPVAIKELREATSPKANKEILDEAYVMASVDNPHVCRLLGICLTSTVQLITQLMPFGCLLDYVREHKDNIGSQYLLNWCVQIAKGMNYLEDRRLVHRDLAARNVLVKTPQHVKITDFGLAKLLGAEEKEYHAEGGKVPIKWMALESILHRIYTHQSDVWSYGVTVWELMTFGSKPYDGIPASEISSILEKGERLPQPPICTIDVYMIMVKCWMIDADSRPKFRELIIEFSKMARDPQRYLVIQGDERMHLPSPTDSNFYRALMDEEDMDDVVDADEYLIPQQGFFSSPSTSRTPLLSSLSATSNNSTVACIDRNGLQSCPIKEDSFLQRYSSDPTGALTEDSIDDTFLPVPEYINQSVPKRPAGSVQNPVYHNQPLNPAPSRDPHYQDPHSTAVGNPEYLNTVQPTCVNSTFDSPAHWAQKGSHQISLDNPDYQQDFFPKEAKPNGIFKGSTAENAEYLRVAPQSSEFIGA
Summary of the method: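 EGFR from A431 lysate was captured on plates coated with anti-EGFR antibody. Compounds were added 30 min before a 5 min phosphorylation with 3 µM ATP/5 mM MnCl2, which was stopped with 20 mM EDTA. Phosphotyrosine was detected with rabbit anti-phosphotyrosine, then a peroxidase-conjugated secondary and ABTS/H2O2, read at 410 nm.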

PDGF-R, sequence (P09619 33-1106, species assumed): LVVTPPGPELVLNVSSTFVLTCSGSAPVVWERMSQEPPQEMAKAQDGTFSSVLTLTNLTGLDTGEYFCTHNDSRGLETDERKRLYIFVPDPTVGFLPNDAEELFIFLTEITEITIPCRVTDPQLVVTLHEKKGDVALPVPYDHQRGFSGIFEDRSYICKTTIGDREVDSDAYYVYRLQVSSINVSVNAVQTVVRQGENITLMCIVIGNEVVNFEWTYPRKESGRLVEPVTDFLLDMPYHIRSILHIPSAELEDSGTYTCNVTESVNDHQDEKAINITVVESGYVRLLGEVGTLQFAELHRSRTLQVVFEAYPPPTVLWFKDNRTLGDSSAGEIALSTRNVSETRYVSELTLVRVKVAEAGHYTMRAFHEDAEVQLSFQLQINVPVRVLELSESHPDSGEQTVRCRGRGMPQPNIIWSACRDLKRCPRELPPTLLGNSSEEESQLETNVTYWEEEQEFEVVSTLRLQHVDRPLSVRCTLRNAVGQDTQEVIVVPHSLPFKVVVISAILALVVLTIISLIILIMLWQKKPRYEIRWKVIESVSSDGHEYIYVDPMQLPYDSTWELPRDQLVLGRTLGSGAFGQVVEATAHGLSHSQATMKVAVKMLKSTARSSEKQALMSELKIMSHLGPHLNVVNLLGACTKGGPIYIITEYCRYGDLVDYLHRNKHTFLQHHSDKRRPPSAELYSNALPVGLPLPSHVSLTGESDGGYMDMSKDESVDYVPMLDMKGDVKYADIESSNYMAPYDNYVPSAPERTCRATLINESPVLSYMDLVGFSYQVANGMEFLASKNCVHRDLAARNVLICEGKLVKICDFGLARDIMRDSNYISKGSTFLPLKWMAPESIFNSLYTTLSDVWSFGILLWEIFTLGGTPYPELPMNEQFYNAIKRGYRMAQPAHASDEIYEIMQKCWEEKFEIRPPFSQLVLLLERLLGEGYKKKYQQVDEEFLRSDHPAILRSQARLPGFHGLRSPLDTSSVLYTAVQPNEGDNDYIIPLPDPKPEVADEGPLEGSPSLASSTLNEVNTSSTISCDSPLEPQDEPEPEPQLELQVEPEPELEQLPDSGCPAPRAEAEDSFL

Compound | PDGF Kinase %Inhibition [1] [%] | Met Kinase % Inhibition [2] [%] | Biochem EGFR %Inhibition [3] [%]
CNS(=O)(=O)c1ccc2c(c1)C(=Cc1cc(O)c(O)c(Br)c1)C(=O)N2 [10723/D04] | 31.8 | 97.7 | 45.1
COc1ccc(C=C2C(=O)Nc3ccc(CCCl)cc32)c(O)c1 [10723/G09] | -2.9 | 80.7 | -32.6
O=C1Nc2ccc(CCCl)cc2C1=Cc1ccc(O)c(O)c1O [10723/G02] | 13.8 | 99.2 | 90.8
O=C1Nc2ccc(CCCl)cc2C1=Cc1ccccc1Br [10723/G07] | -5.6 | 43.0 | 15.5
CC(C)(C)c1cc(C=C2C(=O)Nc3ccc(CCCl)cc32)cc(Cl)c1O [10722/G08] | 12.9 | 66.1 | -8.5
O=C1Nc2ccc(CCCl)cc2C1=Cc1ccc(C(=O)O)cc1 [10722/G05] | -6.0 | 9.7 | -9.0
O=C1Nc2ccc(S(=O)(=O)Nc3ccc(C(F)(F)F)cc3)cc2C1=Cc1ccccc1Br [10723/E07] | 14.5 | 47.7 | 38.1
O=C1Nc2c(Br)cc(Br)cc2C1=Cc1ccc(O)c(O)c1O [10723/A02] | 64.4 | 100.8 | 97.8
CNS(=O)(=O)c1ccc2c(c1)C(=Cc1ccc(OC(C)=O)c(OC(C)=O)c1)C(=O)N2 [10723/D05] | 8.2 | 54.5 | 3.7
O=C1Nc2ccc(S(=O)(=O)N3CCOCC3)cc2C1=Cc1cc(O)c(O)c(Br)c1 [10723/F04] | 21.4 | 94.0 | 17.5
O=C1Nc2ccc(S(=O)(=O)Nc3ccc(C(F)(F)F)cc3)cc2C1=Cc1cc(O)c(O)c(Br)c1 [10723/E04] | 36.0 | 94.5 | 59.8
